The values that follow come from EPA's ToxValDB 9.5 (doi:10.2903/j.efsa.2005.25r).

≈ marks a conversion by molar mass, not a printed value.

In one data set the test system is Apis mellifera. Conditions: acute.
The subject of another data set is Coturnix coturnix. Conditions: acute; duration: 5 days; oral; diet; mortality.
The test system of the next data set is Cyprinodon variegatus. Conditions: mortality.
The subject of a further data set is Daphnia magna. The note with it: chronic/long-term; duration: 21 days; growth.
For a further data set, the system named is Hyalella azteca. The note with it: chronic/long-term; duration: 21 days; mortality.
The next data set has as its system Oncorhynchus mykiss. Conditions: chronic/long-term; duration: 28 days; mortality.
The next data set deals with Phasianus sp. Conditions: short-term; duration: 5 days; oral; feed; mortality.

For `CN(C)C(=O)Nc1ccc(Cl)c(Cl)c1` [Diuron], the LEL was over 100 µg/piece in the data set on Apis mellifera (dermal) and over 100 µg/piece in the data set with Apis mellifera (oral, unspecified). Further, the LC50 with Colinus virginianus (acute, duration: 5 days, oral, diet, mortality) was 346 mg/kg-day; in the data set with Coturnix coturnix it was over 5000 mg/kg; in the data set with Cyprinodon variegatus (acute, duration: 96 hours), 6.7 µg/mL (≈ 28.7 µM); in the data set with Phasianus sp. it was over 5000 mg/kg; in the data set with Pontoscolex corethrurus (acute, mortality), over 798 mg/kg. For the same molecule, the LD50 with Colinus virginianus (acute, duration: 14 days, oral, diet, mortality) amounted to 1100 mg/kg; in the data set with Rattus norvegicus (acute, mortality), 2000 mg/kg. The NOEC with Colinus virginianus (reproduction developmental) is 24.1 mg/kg-day; with Cyprinodon variegatus (chronic/long-term, duration: 32 days) it was 1.7 mg/L; in the data set on Daphnia magna, 0.096 mg/L; in the data set with Hyalella azteca, 0.06 mg/L; with Oncorhynchus mykiss it was 0.41 mg/L; in the data set with Pontoscolex corethrurus (chronic/long-term) it was 14.4 mg/kg. Further, the NOAEL amounted to 80 mg/kg-day in the data set on Rattus norvegicus (chronic); 1.6 mg/kg-day in the data set on Rattus norvegicus (chronic, duration: 6 months, hematological); 0.66 mg/kg-day with Rattus norvegicus (chronic, duration: 6 months, oral, hematological). The molecule further came in with an LOAEL in the data set with Rattus norvegicus (chronic, duration: 2 years, F, hematological) of 1.7 mg/kg-day.

What is called NOAEL is the highest dose or exposure tested at which no adverse effect was seen. The LOAEL is the lowest dose or exposure tested at which an adverse effect was seen.
